Consider 44 compounds from US9156872B2, “2′-azido substituted nucleoside derivatives and methods of use thereof for the treatment of viral diseases” (priority 2011, dated 2015).

The term EC50 denotes the concentration that produces a half-maximal response.

For the test, the system named is HCV replicon cells. As to the kind of experiment: Cell-based HCV replicon assay (replicon RNA by Taqman real time PCR). The following applies: read-out: 1b EC50. (In antiviral work, replicon cells carry a viral genome segment that copies itself.)
[1] abbreviates: HCV replicon 1b, cells harvested on day 3.
Where [2] appears, read: Hepatitis C virus, 72 h, HCV replicon 1b, cells harvested on day 3.

Each structure is given as a SMILES string. Like-named read-outs stand apart in the source and are kept apart here.

For `COc1nc(N)nc2c1ncn2[C@@H]1O[C@H](COP(=O)(N[C@@H](C)C(=O)OC(C)C)Oc2ccccc2)C(O)[C@@]1(C)N=[N+]=[N-]` (single isomer, unassigned) [Compound 253], the EC50 worked out at 600 nM.

As to `CC(C)OC(=O)[C@H](C)NP(=O)(OC[C@H]1O[C@@H](n2ccc(N)nc2=O)[C@](C)(N=[N+]=[N-])[C@@H]1O)Oc1ccccc1Cl` (some centres unmarked) [Compound 95], the EC50 is 4500 nM.

Regarding `CC(C)OC(=O)[C@H](C)NP(=O)(OC[C@H]1O[C@@H](n2ccc(N)nc2=O)[C@](C)(N=[N+]=[N-])[C@@H]1O)Oc1ccccc1Cl` (single isomer, unassigned) [Compound 204], the EC50 turned out to be 1300 nM.

Take `CCOC(=O)[C@H](C)NP(=O)(OC[C@H]1O[C@@H](n2cnc3c(OC)nc(N)nc32)[C@](C)(N=[N+]=[N-])[C@@H]1O)Oc1ccc(F)cc1` (some centres unmarked) [Compound 247]: the EC50 (Hepatitis C virus, 72 h) is 700 nM.

For `COC(=O)[C@H](C)NP(=O)(OC[C@H]1O[C@@H](n2cnc3c(N4CCC4)nc(N)nc32)[C@](C)(N=[N+]=[N-])[C@@H]1O)Oc1ccccc1Cl` (some centres unmarked) [Compound 388], the EC50 (Hepatitis C virus, 72 h) worked out at 1600 nM.

`CCCCOC(=O)[C@H](C)NP(=O)(OC[C@H]1O[C@@H](n2ccc(N)nc2=O)[C@](C)(N=[N+]=[N-])[C@@H]1O)Oc1ccccc1` (some centres unmarked) [Compound 31]: for the setting “Hepatitis C virus, 72 h”, the EC50 came to 4900 nM.

As for `CCOC(=O)[C@H](C)NP(=O)(OC[C@H]1O[C@@H](n2cnc3c(OC)nc(N)nc32)[C@](C)(N=[N+]=[N-])[C@@H]1O)Oc1ccc(Cl)cc1` (single isomer, unassigned) [Compound 289], the EC50 was 700 nM.

In the case of `CC(=O)CCc1ccc(OP(=O)(N[C@@H](C)C(=O)OC(C)C)OC[C@H]2O[C@@H](n3ccc(=O)[nH]c3=O)[C@](C)(N=[N+]=[N-])[C@@H]2O)cc1` (some centres unmarked) [Compound 178], the EC50 (Hepatitis C virus, 72 h) came out at 3000 nM.

For the compound `CCOc1nc(N)nc2c1ncn2[C@@H]1O[C@H](COP(=O)(N[C@@H](C)C(=O)OC)Oc2ccccc2Cl)[C@@H](O)[C@@]1(C)N=[N+]=[N-]` (single isomer, unassigned) [Compound 309], under “Hepatitis C virus, 72 h”, the EC50 amounted to 570 nM.

Take `COC(=O)[C@H](C)NP(=O)(OC[C@H]1O[C@@H](n2cnc3c(OC)nc(N)nc32)[C@](C)(N=[N+]=[N-])[C@@H]1O)Oc1ccc(Cl)c(Cl)c1` (some centres unmarked) [Compound 248]: the EC50 (Hepatitis C virus, 72 h) worked out at 1000 nM.

In the case of `Cc1ccc(C(C)C)cc1OP(=O)(N[C@@H](C)C(=O)OC(C)C)OC[C@H]1O[C@@H](n2ccc(=O)[nH]c2=O)[C@](C)(N=[N+]=[N-])[C@@H]1O` (some centres unmarked) [Compound 177], the EC50 (Hepatitis C virus, 72 h) was determined as 12000 nM.

Consider `COC(=O)[C@H](C)NP1(=O)OC[C@H]2O[C@@H](n3ccc(N)nc3=O)[C@](C)(N=[N+]=[N-])[C@@H]2O1` (single isomer, unassigned) [Compound 530], for which the EC50 under setting [1] was 67000 nM.

Turning to `CCCC(CCC)COC(=O)[C@H](C)NP(=O)(OC[C@H]1O[C@@H](n2ccc(N)nc2=O)[C@](C)(N=[N+]=[N-])[C@@H]1O)Oc1ccccc1` (some centres unmarked) [Compound 317], for the setting “Hepatitis C virus, 72 h”, the EC50 was 39000 nM.

As to `CCOc1nc(N)nc2c1ncn2[C@@H]1O[C@H](COP(=O)(N[C@@H](C)C(=O)OC2CCCCC2)Oc2ccc(Cl)cc2)[C@@H](O)[C@@]1(C)N=[N+]=[N-]` (single isomer, unassigned) [Compound 313], the EC50 (Hepatitis C virus, 72 h) was 660 nM.

On to `CCCCOC(=O)[C@H](C)NP(=O)(OC[C@H]1O[C@@H](n2ccc(N)nc2=O)[C@](C)(N=[N+]=[N-])[C@@H]1O)Oc1cccc2ccccc12` (some centres unmarked) [Compound 3], for which the EC50 (Hepatitis C virus, 72 h) is 1200 nM.

`COC(=O)[C@H](C)NP(=O)(OC[C@H]1O[C@@H](n2cnc3c(OC)nc(N)nc32)[C@](C)(N=[N+]=[N-])[C@@H]1O)Oc1ccc(Cl)cc1` (single isomer, unassigned) [Compound 258]: the EC50 (Hepatitis C virus, 72 h) worked out at 800 nM.

`CCCCOC(=O)[C@H](C)NP(=O)(OC[C@H]1O[C@@H](n2cnc3c(OC)nc(N)nc32)[C@](C)(N=[N+]=[N-])C1O)Oc1ccccc1` (single isomer, unassigned) [Compound 263]: the EC50 was determined as 1500 nM.

Turning to `CCOc1nc(N)nc2c1ncn2[C@@H]1O[C@H](COP(=O)(N[C@@H](C)C(=O)OC(C)C)Oc2ccc(Cl)c(Cl)c2)[C@@H](O)[C@@]1(C)N=[N+]=[N-]` (single isomer, unassigned) [Compound 360], the EC50 came to 4800 nM.

Consider `CCOc1nc(N)nc2c1ncn2[C@@H]1O[C@H](COP(=O)(N[C@@H](C)C(=O)OCC(C)(C)C)Oc2ccccc2)[C@@H](O)[C@@]1(C)N=[N+]=[N-]` (single isomer, unassigned) [Compound 161], for which the EC50 was 1700 nM.

For the compound `C[C@H](NP(=O)(OC[C@H]1O[C@@H](n2ccc(N)nc2=O)[C@](C)(N=[N+]=[N-])[C@@H]1O)Oc1ccc(F)cc1)C(=O)OC1CCCCC1` (some centres unmarked) [Compound 197], the EC50 (Hepatitis C virus, 72 h) was 400 nM.

In the case of `CCCCOC(=O)[C@H](C)NP(=O)(OC[C@H]1O[C@@H](n2cnc3c(OC)nc(N)nc32)[C@](C)(N=[N+]=[N-])C1O)Oc1cccc2ccccc12` (single isomer, unassigned) [Compound 297], where the note is “Hepatitis C virus, 72 h”, the EC50 came to 100 nM.

As to `COC(=O)[C@H](C)NP(=O)(OC[C@H]1O[C@@H](n2cnc3c(OC)nc(N)nc32)[C@](C)(N=[N+]=[N-])[C@@H]1O)Oc1ccccc1` (some centres unmarked) [Compound 53], for the setting “Hepatitis C virus, 72 h”, the EC50 came out at 700 nM.

Turning to `COc1nc(N)nc2c1ncn2[C@@H]1O[C@H](COP(=O)(N[C@@H](C)C(=O)OCC(C)(C)C)Oc2ccccc2)C(O)[C@@]1(C)N=[N+]=[N-]` (single isomer, unassigned) [Compound 292], the EC50 turned out to be 400 nM.

With `COC(=O)[C@H](C)NP(=O)(OC[C@H]1O[C@@H](n2ccc(=O)[nH]c2=O)[C@](C)(N=[N+]=[N-])[C@@H]1O)Oc1cccc2ccccc12` (single isomer, unassigned) [Compound 218], the EC50 is 4600 nM.

For `COc1nc(N)nc2c1ncn2[C@@H]1O[C@H](COP(=O)(N[C@@H](C)C(=O)OCC(C)(C)C)Oc2ccccc2)[C@@H](O)[C@@]1(C)N=[N+]=[N-]` (some centres unmarked) [Compound 55], the EC50 (Hepatitis C virus, 72 h) came to 1100 nM.

As for `COC(=O)c1ccccc1OP(=O)(N[C@@H](C)C(=O)OC)OC[C@H]1O[C@@H](n2ccc(=O)[nH]c2=O)[C@](C)(N=[N+]=[N-])[C@@H]1O` (single isomer, unassigned) [Compound 215], the EC50 came out at 3100 nM.

For the compound `CCOC(=O)c1ccccc1OP(=O)(N[C@@H](C)C(=O)OC)OC[C@H]1O[C@@H](n2ccc(=O)[nH]c2=O)[C@](C)(N=[N+]=[N-])[C@@H]1O` (single isomer, unassigned) [Compound 226], the EC50 is 26000 nM.

`C[C@H](NP(=O)(OC[C@H]1O[C@@H](n2ccc(N)nc2=O)[C@](C)(N=[N+]=[N-])[C@@H]1O)Oc1ccccc1)C(=O)OCc1ccccc1` (single isomer, unassigned) [Compound 191]: the EC50 (Hepatitis C virus, 72 h) is 25000 nM.

As to `CCOc1nc(N)nc2c1ncn2[C@@H]1O[C@@H]2COP(=O)(OC(C)C)O[C@H]2[C@@]1(C)N=[N+]=[N-]` (some centres unmarked) [Compound 23], the EC50 under setting [2] was 69000 nM.

For `CCCCOC(=O)[C@H](C)NP(=O)(OC[C@H]1O[C@@H](n2cnc3c(OCC)nc(N)nc32)[C@](C)(N=[N+]=[N-])[C@@H]1O)Oc1ccccc1` (some centres unmarked) [Compound 27], the EC50 (Hepatitis C virus, 72 h) came out at 100 nM.

As to `CCOc1nc(N)nc2c1ncn2[C@@H]1O[C@H](COP(=O)(N[C@@H](C)C(=O)OC(C)C)Oc2ccccc2Cl)[C@@H](O)[C@@]1(C)N=[N+]=[N-]` (single isomer, unassigned) [Compound 316], the EC50 amounted to 27900 nM.

`CC(C)COC(=O)[C@H](C)NP(=O)(OC[C@H]1O[C@@H](n2ccc(=O)[nH]c2=O)[C@](C)(N=[N+]=[N-])[C@@H]1O)Oc1ccccc1` (single isomer, unassigned) [Compound 211]: the EC50 amounted to 800 nM.

Consider `CCOc1nc(N)nc2c1ncn2[C@@H]1O[C@@H]2COP(=O)(OC3CCC3)O[C@H]2[C@@]1(C)N=[N+]=[N-]` (single isomer, unassigned) [Compound 107], for which the 50% effective concentration (EC50) under setting [1] turned out to be 18600 nM.

As for `CCCCOC(=O)[C@H](C)NP(=O)(OC[C@H]1O[C@@H](n2cnc3c(OCC)nc(N)nc32)[C@](C)(N=[N+]=[N-])[C@@H]1O)Oc1ccccc1` (single isomer, unassigned) [Compound 168], the EC50 amounted to 1500 nM.

Regarding `CCCOP1(=O)OC[C@H]2O[C@@H](n3ccc(=O)[nH]c3=O)[C@](C)(N=[N+]=[N-])[C@@H]2O1` (single isomer, unassigned) [Compound 565], the EC50 under setting [1] is over 100000 nM.

For the compound `COc1nc(N)nc2c1ncn2[C@@H]1O[C@@H]2COP(=O)(OC3CCC3)O[C@H]2[C@@]1(C)N=[N+]=[N-]` (single isomer, unassigned) [Compound 102], the EC50 under setting [2] was 11000 nM.

Take `CC(C)OC(=O)[C@H](C)NP(=O)(OC[C@H]1O[C@@H](n2ccc(=O)[nH]c2=O)[C@](C)(N=[N+]=[N-])[C@@H]1O)Oc1ccccc1Cl` (some centres unmarked) [Compound 39]: the EC50 (Hepatitis C virus, 72 h) amounted to 49000 nM.

With `COC(=O)[C@H](C)NP(=O)(OC[C@H]1O[C@@H](n2cnc3c(OC)nc(N)nc32)[C@](C)(N=[N+]=[N-])C1O)Oc1ccccc1` (single isomer, unassigned) [Compound 261], the EC50 was 900 nM.

For `CCOP1(=O)OC[C@H]2O[C@@H](n3ccc(=O)[nH]c3=O)[C@](C)(N=[N+]=[N-])[C@@H]2O1` (some centres unmarked) [Compound 568], the EC50 was over 100000 nM.

Turning to `CCOc1nc(N)nc2c1ncn2[C@@H]1O[C@H](COP(=O)(N[C@@H](C)C(=O)OCc2ccccc2)Oc2ccccc2)[C@@H](O)[C@@]1(C)N=[N+]=[N-]` (some centres unmarked) [Compound 69], under “Hepatitis C virus, 72 h”, the EC50 was determined as 2200 nM.

As to `COC(=O)c1ccccc1OP(=O)(N[C@@H](C)C(=O)OC(C)C)OC[C@H]1O[C@@H](n2ccc(=O)[nH]c2=O)[C@](C)(N=[N+]=[N-])[C@@H]1O` (some centres unmarked) [Compound 219], for the setting “Hepatitis C virus, 72 h”, the EC50 worked out at 22000 nM.

Turning to `CCCCOC(=O)[C@H](C)NP(=O)(OC[C@H]1O[C@@H](n2ccc(=O)[nH]c2=O)[C@](C)(N=[N+]=[N-])[C@@H]1O)Oc1cccc2ccccc12` (some centres unmarked) [Compound 6], the EC50 (Hepatitis C virus, 72 h) amounted to 1100 nM.

On to `CCOc1nc(N)nc2c1ncn2[C@@H]1O[C@H](COP(=O)(N[C@@H](C)C(=O)OC(C)C)Oc2ccccc2Cl)[C@@H](O)[C@@]1(C)N=[N+]=[N-]` (some centres unmarked) [Compound 59], for which the EC50 (Hepatitis C virus, 72 h) was 10000 nM.

Take `C[C@@]1(N=[N+]=[N-])[C@@H]2OP(=O)(OC3CCC3)OC[C@H]2O[C@H]1n1ccc(=O)[nH]c1=O` (some centres unmarked) [Compound 84]: under setting [1], the EC50 amounted to 51000 nM.
